# System: phospho-p90 RSK (RSK1 Thr359/Ser363) in A375 (Braf V600E) cells
# Assay: Phospho-p90 RSK ELISA using A375 (Braf V600E) cells
# Type: cell-based
# Conditions: Homo sapiens, A-375, 2 hours compound treatment, read-out: Cellular Phospho-p90RSK IC50
# Description: In preparation for the assay, an ELISA plate with the pre-coated goat anti-mouse antibody (Thermo Scientific) was treated with a mouse anti-human RSK1 antibody (monoclonal, Invitrogen) at 1:800 dilution (150 ng/well) in PBS, and the plate was placed on a plate shaker at 4° C. overnight. […] After two […] of the compound treatment, the supernatant was removed from the cell plate, and cells were lysed in 100 μl per well of cell lysis buffer (Cell Signaling Technologies) containing phosphatase and protease inhibitors (Cell Signaling Technologies) on a plate shaker at 4° C. for 20 minutes. The ELISA plate was washed four times with ELISA wash buffer (Thermo Scientific) prior to addition of 100 μL cell lysate. The lysate was incubated on the ELISA plate with gentle shaking at room temperature for 2 hours. The contents of the wells were removed, and the ELISA plate was washed four times with wash buffer, and incubated with 100 μL per well of anti-phospho-RSK1 (Thr359/Ser363) rabbit monoclonal antibody (Millipore) at dilution of 1:1000 in StartingBlock buffer (Thermo Scientific) on a plate shaker at room temperature for 1 hour. The contents of the wells were removed, the ELISA plate was washed four times with wash buffer, and was incubated with 100 μL per well of goat anti-rabbit HRP (Thermo Scientific) at dilution of 1:3000 in StartingBlock buffer (Thermo Scientific) on a plate shaker at room temperature for 1 hour. The contents of the wells were removed, the ELISA plate was washed four times with wash buffer, and then incubated with 100 μL per well of TMB substrate solution (Thermo Scientific) on a plate shaker at room temperature for 20 minutes. Finally, 100 μL of TMB stop solution (Thermo Scientific) was added to each well and the absorbance is measured at 450 nm on a Tecan plate reader.
row,IC50 [nM],Compound
1,250 to 1000,Cc1cc(-c2n[nH]c3cc4c(cc23)CN([C@@H]2CN(CC(F)(F)F)C[C@H]2C2CC2)C(=O)N4)ccn1 (mixture of isomers) [Example 319]
2,250 to 1000,Cc1cc(-c2n[nH]c3cc4c(cc23)CN([C@@H]2CN(CC(F)(F)F)C[C@H]2C(C)C)C(=O)N4)ccn1 (mixture of isomers) [Example 322]
3,> 1000,Cc1cc(-c2n[nH]c3cc4c(cc23)CN([C@@H]2CN(C)C[C@H]2C(C)C)C(=O)N4)ccn1 (mixture of isomers) [Example 327]
4,≤ 250,COc1ccc(-c2n[nH]c3cc4c(cc23)CN([C@@H]2CN(C)C[C@H]2c2ccccc2)C(=O)N4)cn1 (mixture of isomers) [Example 353]
5,≤ 250,COc1cc(-c2n[nH]c3cc4c(cc23)CN([C@@H]2CN(C)C[C@H]2c2ccccc2)C(=O)N4)ccn1 (mixture of isomers) [Example 354]
6,250 to 1000,COc1ncc(-c2n[nH]c3cc4c(cc23)CN([C@@H]2CN(C)C[C@H]2c2ccccc2)C(=O)N4)cn1 (mixture of isomers) [Example 355]
7,≤ 250,Cc1cc(-c2n[nH]c3cc4c(cc23)CN([C@@H]2CN(CCC#N)C[C@H]2c2ccccc2)C(=O)N4)ccn1 (mixture of isomers) [Example 356]
8,250 to 1000,Cc1cc(-c2n[nH]c3cc4c(cc23)CN([C@@H]2CN(C3CCOCC3)C[C@H]2c2ccccc2)C(=O)N4)ccn1 (mixture of isomers) [Example 359]
9,250 to 1000,Cc1cc(-c2n[nH]c3cc4c(cc23)CN([C@@H]2CN(CCC(F)(F)F)C[C@H]2c2ccccc2)C(=O)N4)ccn1 (mixture of isomers) [Example 387]
10,250 to 1000,Cc1cc(-c2n[nH]c3cc4c(cc23)CN([C@@H]2CNC[C@H]2c2ccccc2)C(=O)N4)ccn1 (racemic) [Example 223]
11,≤ 250,Cc1cc(-c2n[nH]c3cc4c(cc23)CN([C@@H]2CN(CC(F)(F)F)C[C@H]2c2ccc(F)cc2)C(=O)N4)ccn1 (racemic) [Example 300]
12,≤ 250,Cc1cc(-c2n[nH]c3cc4c(cc23)CN([C@@H]2CN(CC(F)(F)F)C[C@H]2C)C(=O)N4)ccn1 (racemic) [Example 302]
13,≤ 250,Cc1cc(-c2n[nH]c3cc4[nH]c(=O)c(Cc5ccccc5)cc4cc23)ccn1 [Example 6]
14,250 to 1000,COc1cc(-c2n[nH]c3cc4c(cc23)CN(Cc2ccc(F)c(Cl)c2)C(=O)N4)ccn1 [Example 38]
15,> 1000,O=C1Nc2cc3[nH]nc(-c4ccc(F)cc4)c3cc2CN1Cc1ccc(F)c(Cl)c1 [Example 40]
16,> 1000,O=C1Nc2cc3[nH]nc(C4CC4)c3cc2CN1Cc1ccc(F)c(Cl)c1 [Example 42]
17,> 1000,Cc1cc(-c2n[nH]c3cc4c(cc23)CN(CCO)C(=O)N4)ccn1 [Example 43]
18,250 to 1000,Cc1cc(-c2n[nH]c3cc4c(cc23)CN(C2CCOCC2)C(=O)N4)ccn1 [Example 44]
19,250 to 1000,COCCOCCN1Cc2cc3c(-c4ccnc(C)c4)n[nH]c3cc2NC1=O [Example 45]
20,> 1000,Cc1cc(-c2n[nH]c3cc4c(cc23)CN(CCN(C)C)C(=O)N4)ccn1 [Example 46]
21,250 to 1000,O=C1Nc2cc3[nH]nc(-c4cn[nH]c4)c3cc2CN1Cc1ccc(F)c(Cl)c1 [Example 48]
22,≤ 250,Cc1cc(-c2n[nH]c3cc4c(cc23)CN(CCc2cccc(Cl)c2)C(=O)N4)ccn1 [Example 50]
23,> 1000,Cc1cc(-c2n[nH]c3cc4c(cc23)CN(CCN2CCOCC2)C(=O)N4)ccn1 [Example 51]
24,250 to 1000,Cc1cc(-c2n[nH]c3cc4c(cc23)CN(C(C)CC(C)C)C(=O)N4)ccn1 (stereo not shown) [Example 53]
25,> 1000,Cc1cc(-c2n[nH]c3cc4c(cc23)CN([C@H](C)CO)C(=O)N4)ccn1 [Example 54]
26,≤ 250,Cc1cc(-c2n[nH]c3cc4c(cc23)CN(Cc2cccc(C#N)c2)C(=O)N4)ccn1 [Example 55]
27,250 to 1000,Cc1cc(-c2n[nH]c3cc4c(cc23)CN(Cc2nccs2)C(=O)N4)ccn1 [Example 56]
28,≤ 250,O=C1Nc2cc3[nH]nc(-c4cccnc4)c3cc2CN1Cc1cccc(Cl)c1 [Example 57]

# Source: patent US10301317B2, “Inhibitors of ERK and methods of use” (Kura Oncology, Inc., priority 2013, dated 2019)
